# Data taken from patent publication US20080089956A1, “NITRIC OXIDE IN TREATMENT OF INFLAMMATION” (AGA AB, priority 2003, published 2008).
# Entries after “also recorded” stand apart in the source; their conditions may differ.
# What was measured:
# Type in all cases: in vivo, piglets of Swedish country breed
# [1] = test system: endotoxin pig model (LPS-induced acute lung injury and septic shock); assay: Histological changes of lung, liver and kidney tissues in endotoxin pig model; parameters: Congestion / Inflammatory cell infiltrate / Congestion and hemorrhage / Edema/ Hemorrage: key to the marks not given beside the values
# Experimental: (§1) The pigs were divided into 5 groups: • 1. Normal control group • 2. Endotoxin (lipopolysaccharide, LPS) group • 3. LPS+INO group • 4. LPS+steoid group • 5. LPS +INO +steroid group • The different protocols are shown schematically in FIG. 1 and are described below. 1. Healthy Control Group (n=8)
# (§2) Anesthesia, surgery preparation and catheterizations were followed by 30 min of rest. Baseline measurements were then made. The pigs were followed for another 6 hours to establish control data over the whole study period. The pigs were killed after the last measurement with an intra-venous injection of KCl; and tissue samples were taken from the lung, liver and kidney for morphological and biochemical studies.
# (§3) After baseline measurements, acute lung injury and septic shock was induced by intravenous infusion of LPS 25 μg/kg/h in saline for 2.5 h, followed by 10 μg/kg/h for the remainder of the study. The pigs were followed by hemodynamics and blood gas measurements and were killed at the end of the experiment and tissue samples were taken, as described above.
# (§4) LPS infusion was started after baseline measurements and continued for 6 hours. Two and half hours after commencement of the endotoxin infusion, inhalation of NO 30 ppm was started and maintained for 3.5 hours. Measurements were taken every hour to check for any protective effect of INO therapy on the lung and extra-pulmonary organs.
# (§5) This group received endotoxin over 6 hours, as described above, and 2.5 hours after the start of endotoxin administration steroids were given i.v. and INO, 30 ppm, was commenced and continued for the remaining 3.5 hours study period.
# (§6) NO, 1000 ppm in N2, was added to a mixture of O2/N2 and administered through the low-flow inlet of the ventilator. The inspired gas was passed through a canister containing soda lime to absorb any NO2. […] The concentrations of inspired NO and NO2 were measured continuously, by chemiluminescence (9841 NOx, Lear Siegler Measurement Controls Corporation, Englewood, Colo., USA), in the inspiratory limb of the ventilator tubing. FIO2 was checked after addition of NO and kept stable at the pre-INO level.
# glucocorticoid receptor = assay: GR expression, immunohistochemical staining of tissue from endotoxin-exposed piglets; settings: compared with LPS group
# Experimental: as §2
# (§7) Anesthesia, surgery and catheterizations were similar to the controls. After baseline measurements, acute lung injury and septic shock was induced by intravenous infusion of LPS 25 μg/kg/h in saline for 2.5 h, followed by 10 μg/kg/h for the remainder of the study. […]
# (§8) The antibodies were detected with the peroxidase-anti-peroxidase method using 3-amino-9-ethyl-carbazole (AEC, SIGMA Catalogue No. A-6926 Germany) as chromogen. […]
# (§9) An image-analysis system consisting of a 12-bit cooled charge-coupled device camera (Sensys KAF 1400, Photometrics, Tucson, AZ) mounted on a fully automated Leica (Wetzlar, Germany) DM RXA microscope was used to digitize grey-scale images to a dual-Pentium 200 MHz host computer. […] The optimal central wavelength was determined by measurement of the substrate in a Leica MPV SP microscope photometer system (courtesy of Leica).
# NF-κB = assay: Expression of NF-κB, immunohistochemical staining of tissue from endotoxin-exposed piglets
# Experimental: as §2, §7, §8, §9
# [2] = test system: endotoxin pig model (LPS-induced acute lung injury and septic shock); assay: Haemodynamics and arterial oxygenation in endotoxin (LPS) pig model
# Experimental: as §1, §3, §4, §5
# as §6, with “tubing.” for “tubing. FIO2 was checked after addition of NO and kept stable at the pre-INO level.”
# [3] = Kidney, piglets, LPS infusion 6 h, treatment from 2.5 h (INO 30 ppm; hydrocortisone 3.5 mg/kg i.v.)
# [4] = Liver, piglets, LPS infusion 6 h, treatment from 2.5 h (INO 30 ppm; hydrocortisone 3.5 mg/kg i.v.)
# [5] = piglets during 6 h endotoxin infusion, treatment from 2.5 h
substance,measurement,setting,value
nitric oxide [LPS + INO],"histology changes of kidney tissue, in words","[1]; Kidney, endotoxin-exposed piglets, compared with LPS group / healthy",even less marked than in the LPS+Steroid group
same,Edema/ Hemorrage,[1]; [3],+++
same,Inflammatory cell infiltrate,[1]; [3],+++
same,"histology changes of liver tissue, in words","[1]; Liver, endotoxin-exposed piglets, compared with LPS group / healthy",much less than in the LPS group
same,Congestion and hemorrhage,[1]; [4],++
same,Destruction of the lobular structure,[1]; [4],+
same,Inflammatory cell infiltrate,[1]; [4],+++
same,"histology changes of lung tissue, in words","[1]; Lung, endotoxin-exposed piglets, compared with LPS group / healthy",even less of these changes
same,Inflammatory cell infiltrate,"[1]; Lung, piglets, LPS infusion 6 h, treatment from 2.5 h (INO 30 ppm for 3.5 h; hydrocortisone 3.5 mg/kg i.v.)",+++
same,Congestion,"[1]; Lung, piglets, LPS infusion 6 h, treatment from 2.5 h (INO 30 ppm; hydrocortisone 3.5 mg/kg i.v.)",+++
same,"inflammatory response, in words","[1]; endotoxin pig model, lung, liver and kidney (discussion)",attenuated the inflammatory response but only to a limited degree
same,"expression of glucocorticoid receptor in lung tissue, in words",glucocorticoid receptor,significantly raised
same,"NF-kB expression in lung tissue, in words",NF-κB,at a low level
same,"arterial oxygenation (PaO2), effect in words",[2]; [5],improved oxygenation; also recorded: prevented part of the fall in PaO2
same,"mean pulmonary artery pressure (MPAP), effect in words",[2]; [5],lowered MPAP but not back to normal; also recorded: attenuated the increase in MPAP
same,MPAP higher than in healthy controls,"[2]; piglets during endotoxin infusion with INO 30 ppm, p<0.01 vs healthy controls",75-80%
